The source of these data is patent US20240101576A1, “HETEROCYCLIC INHIBITORS OF EGFR AND/OR HER2, FOR USE IN THE TREATMENT OF CANCER” (Scorpion Therapeutics, Inc., priority 2020, published 2024).

The IC50 is the concentration that gives 50% inhibition.

Type in all cases: cell-based
Test [1] addresses T1, EGFR exon 20 FQEA Ins A763_V764 (Ba/F3 cells) (Homo sapiens, UniProt P00533, INS763FQEA).
T1 construct: expressed in transfected cells; host or cells: Ba/F3 (murine pro-B cells), retroviral transduction, puromycin selection, IL3-independent pool
Nature of the test: Inhibitor activity on EGFR-dependent cell growth (CellTiter-Glo, 72 h), Ba/F3 EGFR exon 20 FQEA Ins. Particulars: read-out: BaF3 FQEA IC50. An outline of the steps:
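72 h proliferation, Ba/F3 EGFR mutants (no IL3, puromycin-selected pools, EGFR confirmed by Western blot). Seeding of 400 L858R, 600 L858R/C797S and 800 exon 19del/FQEA cells per well. CellTiter-Glo used; controls were […] (high) and medium alone (low).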

In test [2] the target is T2, EGFR exon 20 ASV Ins V769_D770 (Ba/F3 cells) (Homo sapiens, UniProt P00533, INS769ASV).
T2 construct: expressed in transfected cells; host or cells: Ba/F3 (murine pro-B cells), retroviral transduction, puromycin selection, IL3-independent pool
T2 sequence (P00533 with tags, fused parts or gaps INS769ASV): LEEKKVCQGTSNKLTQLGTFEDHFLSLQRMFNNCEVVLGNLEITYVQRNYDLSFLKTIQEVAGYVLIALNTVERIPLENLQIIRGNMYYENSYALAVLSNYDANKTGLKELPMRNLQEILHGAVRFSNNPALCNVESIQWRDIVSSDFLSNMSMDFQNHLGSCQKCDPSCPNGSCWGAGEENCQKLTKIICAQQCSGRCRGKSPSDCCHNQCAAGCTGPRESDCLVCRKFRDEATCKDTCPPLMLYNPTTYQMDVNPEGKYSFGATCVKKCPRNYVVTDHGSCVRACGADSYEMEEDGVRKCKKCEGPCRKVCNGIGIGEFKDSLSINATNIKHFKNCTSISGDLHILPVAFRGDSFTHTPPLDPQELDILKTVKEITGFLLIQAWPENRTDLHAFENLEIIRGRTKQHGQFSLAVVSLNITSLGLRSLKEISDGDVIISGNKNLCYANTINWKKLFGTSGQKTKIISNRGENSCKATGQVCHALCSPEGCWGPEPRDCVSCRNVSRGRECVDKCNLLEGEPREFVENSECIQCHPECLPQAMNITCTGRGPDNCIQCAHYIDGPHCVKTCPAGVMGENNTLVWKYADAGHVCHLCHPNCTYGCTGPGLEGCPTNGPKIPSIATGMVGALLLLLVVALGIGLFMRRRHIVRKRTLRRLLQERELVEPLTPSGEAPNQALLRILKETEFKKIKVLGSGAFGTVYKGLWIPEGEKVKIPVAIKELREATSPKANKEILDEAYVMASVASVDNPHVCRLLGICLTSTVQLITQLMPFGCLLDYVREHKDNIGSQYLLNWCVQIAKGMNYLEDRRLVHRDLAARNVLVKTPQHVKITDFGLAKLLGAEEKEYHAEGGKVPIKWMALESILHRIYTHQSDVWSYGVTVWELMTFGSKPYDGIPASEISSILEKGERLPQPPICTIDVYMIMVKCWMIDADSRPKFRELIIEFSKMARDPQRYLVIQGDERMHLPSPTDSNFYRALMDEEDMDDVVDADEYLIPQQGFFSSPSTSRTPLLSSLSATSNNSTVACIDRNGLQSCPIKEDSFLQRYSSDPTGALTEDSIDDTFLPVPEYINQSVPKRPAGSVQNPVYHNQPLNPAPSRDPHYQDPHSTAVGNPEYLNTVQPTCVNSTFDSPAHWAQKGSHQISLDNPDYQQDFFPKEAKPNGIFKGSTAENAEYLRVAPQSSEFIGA
Nature of the test: Inhibitor activity on EGFR-dependent cell growth (CellTiter-Glo, 72 h), Ba/F3 EGFR exon 20 ASV Ins. Particulars: read-out: BaF3 ASV IC50. An outline of the steps:
(§1)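 IC50s derive from a sigmoidal dose–response fit of CellTiter-Glo signal. The signal was normalised between […]-treated cells and cell-free medium. Ba/F3 mutant-EGFR cells, seeded at 400–800/well depending on the line, had 72 h of exposure to a 10-point, 3-fold compound series.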
(ATP-based viability assays read luminescence as a measure of living cells.)

Test [3] addresses T3, EGFR WT (Ba/F3 cells) (Homo sapiens, UniProt P00533).
T3 construct: expressed in transfected cells; host or cells: Ba/F3 (murine pro-B cells), retroviral transduction, puromycin selection, maintained with EGF
Put plainly: Inhibitor activity on EGFR-dependent cell growth (CellTiter-Glo, 72 h), Ba/F3 EGFR WT. Particulars: read-out: BaF3 WT IC50. The method in brief:
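This growth assay used Ba/F3 cells that depend on wild-type EGFR and are kept in EGF without IL3. Compounds were made up as 10 mM DMSO stocks and diluted 3-fold over 10 points. 120 nL went onto 600 cells/well. After 72 hours, 40 μL CellTiter-Glo was added and luminescence read on EnVision after 30 min.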

Test [4] concerns the target T2, EGFR exon 20 ASV Ins V769_D770 (Ba/F3 cells). Nature of the test: Inhibitor activity on EGFR phosphorylation (pEGFR AlphaLISA, 2 h), Ba/F3 EGFR exon 20 ASV Ins. As to conditions: EGFR phosphorylation, AlphaLISA, 2 hours; read-out: ASV IC50 (pEGFR). The source says: Example B. Inhibitor Activity on EGFR phosphorylation (pEGFR)
EGFR mutant Ba/F3 cells were generated by transduction with retrovirus containing vectors expressing EGFR L858R, EGFR exon 19del, EGFR L858R/C797S, EGFR exon 20 NPG Ins D770_N771, EGFR exon 20 ASV Ins V769_D770, or EGFR exon 20 SVD Ins D770_N771 genes along with a puromycin selection marker. Transduced cells are selected with puromycin for 7 days and are then be transferred into culture media without Interleukin 3 (IL3). Surviving cells are confirmed to express EGFR by Western blot and maintained as a pool. CUTO14 cells were obtained from Dr. Robert C. Doebele at the University of Colorado. The IC50 date are included in Table 6 and Table 7.
1.1 Cells are harvested from flask into cell culture medium and the cell number counted.
1.2 Cells are diluted with culture medium to the desired density and 40 μL of cell suspension is added into each well of 384-well cell culture plate and the seeding density is 50K cells/well (Ba/F3) or 12.5K cells/well (CUTO14).
2 Compound Preparation and Treatment
2.1 Test compounds are dissolved to 10 mM in a DMSO stock solution. 45 μL of stock solution is transferred to a 384 polypropylene plate (pp-plate). Perform 3-fold, 10-point dilution via transferring 15 μL compound into 30 μL DMSO using a TECAN (EVO200) liquid handler.
2.2 Spin plates at room temperature at 1,000 RPM for 1 minute.
2.3 Transfer 5 nL of diluted compound from compound source plate into the cell plate.
2.4 After compound treatment for 2 hours, perform pEGFR detection by AlphaLISA for compound treatment plates as described in “Detection” section.
3 Detection by pEGFR AlphaLISA (Perkin-Elmer)
3.1 Plates are removed from incubators and equilibrated at room temperature for 10 minutes, and media was removed
3.2 10 μL of lysis buffer is added and plates shaken at 600 rpm for 1 hr.
3.3 Prepare acceptor mix just before use and dispense 5 μL of acceptor mix to all the wells. Shake 350 rpm for Ihr in the dark
3.4 Prepare donor mix under low light conditions prior to use. Dispense 5 μL of donor mix to all the wells. Mix well on the shaker, seal and wrap in aluminum foil and incubate 1.5 hrs at room temperature in the dark
3.5 Transfer 18.5 μL mixture to OptiPlate 384, and read using an Envision. The IC50 date were included in Table 6 and Table 7.

Test [5] addresses T4, EGFR exon 20 SVD Ins D770_N771 (Ba/F3 cells) (Homo sapiens, UniProt P00533, INS770SVD).
T4 construct: expressed in transfected cells; host or cells: Ba/F3 (murine pro-B cells), retroviral transduction, puromycin selection, IL3-independent pool
Nature of the test: Inhibitor activity on EGFR-dependent cell growth (CellTiter-Glo, 72 h), Ba/F3 EGFR exon 20 SVD Ins. Particulars: read-out: BaF3 SVD IC50. The method in brief:
as §1

The target in test [6] is T5, EGFR exon 20 NPG Ins D770_N771 (Ba/F3 cells) (Homo sapiens, UniProt P00533, INS770NPG).
T5 construct: expressed in transfected cells; host or cells: Ba/F3 (murine pro-B cells), retroviral transduction, puromycin selection, IL3-independent pool
Put plainly: Inhibitor activity on EGFR-dependent cell growth (CellTiter-Glo, 72 h), Ba/F3 EGFR exon 20 NPG Ins. Particulars: read-out: BaF3 NPG IC50. An outline of the steps: as §1

Molecules are shown by their SMILES. Where only a bound is given, the exact number is not on record here.

T3 sequence (P00533 25-1210): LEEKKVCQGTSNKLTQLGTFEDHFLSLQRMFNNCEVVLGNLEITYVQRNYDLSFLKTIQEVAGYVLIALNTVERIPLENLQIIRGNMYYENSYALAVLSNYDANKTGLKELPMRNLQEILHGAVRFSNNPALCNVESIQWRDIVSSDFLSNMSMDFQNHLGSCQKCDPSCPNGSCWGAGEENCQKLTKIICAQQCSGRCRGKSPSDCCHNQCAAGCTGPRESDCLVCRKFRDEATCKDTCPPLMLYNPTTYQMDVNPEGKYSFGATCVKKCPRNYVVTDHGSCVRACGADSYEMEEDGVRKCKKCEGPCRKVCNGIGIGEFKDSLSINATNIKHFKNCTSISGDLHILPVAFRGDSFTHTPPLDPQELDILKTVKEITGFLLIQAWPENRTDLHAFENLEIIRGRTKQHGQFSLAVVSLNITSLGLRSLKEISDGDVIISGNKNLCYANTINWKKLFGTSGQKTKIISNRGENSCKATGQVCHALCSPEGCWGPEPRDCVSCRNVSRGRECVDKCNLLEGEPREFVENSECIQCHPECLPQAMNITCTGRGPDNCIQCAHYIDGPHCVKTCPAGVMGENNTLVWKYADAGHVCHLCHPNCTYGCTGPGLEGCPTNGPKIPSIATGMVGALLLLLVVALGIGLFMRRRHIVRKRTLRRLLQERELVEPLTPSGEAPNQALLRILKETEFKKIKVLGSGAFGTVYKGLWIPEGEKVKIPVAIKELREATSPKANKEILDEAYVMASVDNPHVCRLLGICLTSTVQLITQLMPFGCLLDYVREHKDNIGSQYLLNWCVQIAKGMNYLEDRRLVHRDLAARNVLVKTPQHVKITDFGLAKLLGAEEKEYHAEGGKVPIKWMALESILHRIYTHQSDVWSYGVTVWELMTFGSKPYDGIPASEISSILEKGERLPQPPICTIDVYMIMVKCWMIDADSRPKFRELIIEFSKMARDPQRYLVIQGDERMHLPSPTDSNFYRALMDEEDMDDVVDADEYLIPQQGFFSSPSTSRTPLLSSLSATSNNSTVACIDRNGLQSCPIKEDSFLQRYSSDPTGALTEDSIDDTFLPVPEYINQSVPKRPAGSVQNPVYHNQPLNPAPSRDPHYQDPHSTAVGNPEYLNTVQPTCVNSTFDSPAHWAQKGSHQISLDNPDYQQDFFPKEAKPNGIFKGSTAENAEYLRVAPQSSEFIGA
T1 sequence (P00533 with tags, fused parts or gaps INS763FQEA): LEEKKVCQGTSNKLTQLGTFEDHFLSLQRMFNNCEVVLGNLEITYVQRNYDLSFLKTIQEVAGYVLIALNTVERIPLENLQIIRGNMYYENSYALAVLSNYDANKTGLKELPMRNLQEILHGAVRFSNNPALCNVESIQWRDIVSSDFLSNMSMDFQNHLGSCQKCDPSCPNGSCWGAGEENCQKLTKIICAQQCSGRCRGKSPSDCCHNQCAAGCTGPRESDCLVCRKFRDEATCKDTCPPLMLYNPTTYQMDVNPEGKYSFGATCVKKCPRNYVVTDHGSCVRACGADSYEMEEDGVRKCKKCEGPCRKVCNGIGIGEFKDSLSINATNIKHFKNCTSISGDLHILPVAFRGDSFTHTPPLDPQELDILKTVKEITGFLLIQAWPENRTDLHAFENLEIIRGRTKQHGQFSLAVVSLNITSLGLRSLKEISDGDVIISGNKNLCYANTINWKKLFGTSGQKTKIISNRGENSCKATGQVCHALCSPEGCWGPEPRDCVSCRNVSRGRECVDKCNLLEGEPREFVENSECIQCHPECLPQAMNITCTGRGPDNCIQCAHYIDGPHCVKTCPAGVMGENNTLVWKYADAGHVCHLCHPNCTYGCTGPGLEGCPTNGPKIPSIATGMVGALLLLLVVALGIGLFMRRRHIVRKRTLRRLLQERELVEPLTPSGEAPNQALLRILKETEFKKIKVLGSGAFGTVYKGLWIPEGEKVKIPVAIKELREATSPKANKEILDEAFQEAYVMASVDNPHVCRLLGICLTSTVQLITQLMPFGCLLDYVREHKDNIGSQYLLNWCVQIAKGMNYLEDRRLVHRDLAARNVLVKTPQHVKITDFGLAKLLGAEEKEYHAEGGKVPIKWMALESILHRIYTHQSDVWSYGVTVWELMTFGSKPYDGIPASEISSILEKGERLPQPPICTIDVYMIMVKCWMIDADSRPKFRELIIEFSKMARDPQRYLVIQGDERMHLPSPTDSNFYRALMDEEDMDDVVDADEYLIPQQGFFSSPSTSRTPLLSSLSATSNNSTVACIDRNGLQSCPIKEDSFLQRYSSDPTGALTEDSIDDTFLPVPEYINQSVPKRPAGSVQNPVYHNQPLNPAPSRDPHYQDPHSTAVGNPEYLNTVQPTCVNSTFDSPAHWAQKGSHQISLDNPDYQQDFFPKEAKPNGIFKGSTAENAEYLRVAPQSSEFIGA
T4 sequence (P00533 with tags, fused parts or gaps INS770SVD): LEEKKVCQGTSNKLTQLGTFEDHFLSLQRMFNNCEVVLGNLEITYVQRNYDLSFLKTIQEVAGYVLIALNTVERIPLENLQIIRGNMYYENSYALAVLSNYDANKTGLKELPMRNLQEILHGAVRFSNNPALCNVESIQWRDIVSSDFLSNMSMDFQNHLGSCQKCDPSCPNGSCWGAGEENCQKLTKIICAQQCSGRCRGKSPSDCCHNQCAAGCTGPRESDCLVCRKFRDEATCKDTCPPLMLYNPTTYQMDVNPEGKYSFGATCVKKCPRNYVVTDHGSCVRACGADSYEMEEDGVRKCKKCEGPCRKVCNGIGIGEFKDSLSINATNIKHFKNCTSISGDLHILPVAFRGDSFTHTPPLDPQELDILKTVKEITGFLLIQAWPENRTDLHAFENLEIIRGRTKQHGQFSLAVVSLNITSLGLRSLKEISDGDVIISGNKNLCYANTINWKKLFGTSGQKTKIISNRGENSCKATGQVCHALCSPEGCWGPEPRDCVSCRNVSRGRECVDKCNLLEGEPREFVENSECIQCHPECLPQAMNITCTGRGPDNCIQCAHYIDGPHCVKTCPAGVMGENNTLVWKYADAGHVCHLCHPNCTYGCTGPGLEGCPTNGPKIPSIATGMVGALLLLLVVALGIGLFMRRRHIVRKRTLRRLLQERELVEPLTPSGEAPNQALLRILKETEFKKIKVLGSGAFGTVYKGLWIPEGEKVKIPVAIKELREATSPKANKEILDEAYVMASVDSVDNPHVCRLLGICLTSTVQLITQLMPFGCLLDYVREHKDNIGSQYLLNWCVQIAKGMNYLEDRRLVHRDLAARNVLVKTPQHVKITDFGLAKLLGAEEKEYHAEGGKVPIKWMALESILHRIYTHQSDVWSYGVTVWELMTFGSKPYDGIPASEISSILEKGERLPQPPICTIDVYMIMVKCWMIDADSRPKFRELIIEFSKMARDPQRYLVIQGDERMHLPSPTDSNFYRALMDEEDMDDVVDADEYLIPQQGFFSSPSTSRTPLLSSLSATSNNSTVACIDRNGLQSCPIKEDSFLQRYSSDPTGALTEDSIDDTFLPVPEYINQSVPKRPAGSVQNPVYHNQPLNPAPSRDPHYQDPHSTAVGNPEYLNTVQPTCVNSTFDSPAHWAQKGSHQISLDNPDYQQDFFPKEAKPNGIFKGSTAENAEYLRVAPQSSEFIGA

As for `COc1c(F)cccc1Nc1c(-c2ccnc3ccc(NC4(C)CC4)nc23)[nH]c2c1C(=O)NCC2` [Compound 695, 3-[(3-fluoro-2-methoxyphenyl)amino]-2-[6-[(1-methylcyclopropyl)amino]-1,5-naphthyridin-4-yl]-1H,5H,6H,7H-pyrrolo[3,2-c]pyridin-4-one; formic acid], the IC50 in test [1], in test [2], in test [3], in test [4] and in test [5] was under 0.1 µM in each case.
With `COc1c(Cl)cccc1Nc1c(-c2ccnc(N)c2F)[nH]c2c1C(=O)NCC2` [Compound 686, 2-(2-amino-3-fluoropyridin-4-yl)-3-[(3-chloro-2-methoxyphenyl)amino]-1H,5H,6H,7H-pyrrolo[3,2-c]pyridin-4-one; trifluoroacetic acid], the IC50 in test [1] is 0.1 to 1 µM; in test [2], under 0.1 µM; in test [3], 0.1 to 1 µM; in test [4] it was under 0.1 µM; in test [5] it was under 0.1 µM.
Turning to `COc1cccc(Nc2c(-c3ccnc(N)n3)[nH]c3c2C(=O)NCC3)c1C` [Compound 705, 2-(2-aminopyrimidin-4-yl)-3-[(3-methoxy-2-methylphenyl)amino]-1H,5H,6H,7H-pyrrolo[3,2-c]pyridin-4-one], the IC50 in test [1], in test [2], in test [3], in test [4] and in test [5] was over 1 µM throughout.
For the molecule `Nc1nccc(-c2[nH]c3c(c2Nc2ccc(Cl)cc2)C(=O)NCC3)n1` [compound 192], the half-maximal inhibitory concentration (IC50) in test [1], in test [3] and in test [4] was over 1 µM throughout.
As for `Nc1nccc(-c2[nH]c3c(c2Nc2ccccc2Cl)C(=O)NCC3)n1` [compound 194], the 50% inhibitory concentration (IC50) in test [1] is 0.1 to 1 µM; in test [3], 0.1 to 1 µM; in test [4] it was under 0.1 µM.
Turning to `CCOc1c(Cl)cccc1Nc1c(-c2ccnc(N)n2)[nH]c2c1C(=O)NCC2` [Compound 700, 2-(2-aminopyrimidin-4-yl)-3-[(3-chloro-2-ethoxyphenyl)amino]-1H,5H,6H,7H-pyrrolo[3,2-c]pyridin-4-one; trifluoroacetic acid], the IC50 in test [1] is over 1 µM; in test [3], over 1 µM; in test [4], 0.1 to 1 µM.
On to `COc1c(C)cccc1Nc1c(-c2ccnc(N)n2)[nH]c2c1C(=O)NCC2` [compound 305], for which the values for the concentration for half-maximal inhibition (IC50) in test [1], in test [3] and in test [4] were 0.1 to 1 µM, over 1 µM and under 0.1 µM, respectively.
As to `Nc1nccc(-c2[nH]c3c(c2Nc2cccc(Cl)c2)C(=O)NCC3)n1` [compound 193], the IC50 in test [1] is 0.1 to 1 µM; in test [3], 0.1 to 1 µM; in test [4], under 0.1 µM.
In the case of `Cc1c(F)cccc1Nc1c(-c2nc(N)ncc2F)[nH]c2c1C(=O)NCC2` [Compound 689, 2-(2-amino-5-fluoropyrimidin-4-yl)-3-[(3-fluoro-2-methylphenyl)amino]-1H,5H,6H,7H-pyrrolo[3,2-c]pyridin-4-one], the IC50 was 0.1 to 1 µM in test [1], over 1 µM in test [2], 0.1 to 1 µM in test [4] and over 1 µM in test [5].
Take `COc1c(Nc2c(-c3ccnc(N)n3)[nH]c3c2C(=O)NCC3)ccc(F)c1Cl` [compound 713, 2-(2-aminopyrimidin-4-yl)-3-[(3-chloro-4-fluoro-2-methoxyphenyl)amino]-1H,5H,6H,7H-pyrrolo[3,2-c]pyridin-4-one]: the IC50 is over 1 µM in test [1]; 0.1 to 1 µM in test [2]; over 1 µM in test [3]; 0.1 to 1 µM in test [6]; 0.1 to 1 µM in test [5].
On to `COc1c(F)cccc1Nc1c(-c2ccncc2F)[nH]c2c1C(=O)NC[C@@H]2C[C@H]1CCO1` [Compound 422c, (7S)-3-[(3-fluoro-2-methoxyphenyl)amino]-2-(3-fluoropyridin-4-yl)-7-[(2S)-oxetan-2-ylmethyl]-1H,5H,6H,7H-pyrrolo[3,2-c]pyridin-4-one], for which the 50% inhibitory concentration (IC50) is 0.1 to 1 µM in test [1]; 0.1 to 1 µM in test [2]; over 1 µM in test [3]; 0.1 to 1 µM in test [6]; 0.1 to 1 µM in test [5].
For `COc1c(Cl)cc(F)cc1Nc1c(-c2ccnc(N)n2)[nH]c2c1C(=O)NCC2` [Compound 714, 2-(2-aminopyrimidin-4-yl)-3-[(3-chloro-5-fluoro-2-methoxyphenyl)amino]-1H,5H,6H,7H-pyrrolo[3,2-c]pyridin-4-one; trifluoroacetic acid], the IC50 in test [1] is 0.1 to 1 µM; in test [2], 0.1 to 1 µM; in test [3], over 1 µM; in test [6], under 0.1 µM; in test [5], 0.1 to 1 µM.
Turning to `COc1c(Cl)cccc1Nc1c(-c2ccnc3ccc(O[C@H]4CCCOC4)nc23)[nH]c2c1C(=O)NCC2` [compound 741, 3-[(3-chloro-2-methoxyphenyl)amino]-2-[6-[(3S)-oxan-3-yloxy]-1,5-naphthyridin-4-yl]-1H,5H,6H,7H-pyrrolo[3,2-c]pyridin-4-one; formic acid], the IC50 in test [1], in test [2], in test [3], in test [6] and in test [5] was under 0.1 µM each time.
Take `COc1c(F)cccc1Nc1c(-c2ccncc2F)[nH]c2c1C(=O)NC[C@H]2CC1COC1` [469a]: the IC50 in test [1], in test [2], in test [3], in test [6] and in test [5] was over 1 µM in each case.
Regarding `COc1c(Cl)cccc1Nc1c(-c2ccnc3ccc(OCC(F)(F)F)nc23)[nH]c2c1C(=O)NCC2` [compound 763, 3-[(3-chloro-2-methoxyphenyl)amino]-2-[6-(2,2,2-trifluoroethoxy)-1,5-naphthyridin-4-yl]-1H,5H,6H,7H-pyrrolo[3,2-c]pyridin-4-one], the IC50 was 0.1 to 1 µM in test [1]; under 0.1 µM in test [2]; 0.1 to 1 µM in test [3]; 0.1 to 1 µM in test [6]; under 0.1 µM in test [5].
`COc1c(F)cccc1Nc1c(-c2ccncc2F)[nH]c2c1C(=O)NC[C@H]2C[C@H]1CCO1` [Compound 422d, (7R)-3-[(3-fluoro-2-methoxyphenyl)amino]-2-(3-fluoropyridin-4-yl)-7-[(2S)-oxetan-2-ylmethyl]-1H,5H,6H,7H-pyrrolo[3,2-c]pyridin-4-one]: the IC50 in test [1] was 0.1 to 1 µM; in test [2], under 0.1 µM; in test [3], 0.1 to 1 µM; in test [6], under 0.1 µM; in test [5] it was under 0.1 µM.
For `COc1c(Cl)cccc1Nc1c(-c2ccnc3ccc(O[C@@H]4CCOC4)nc23)[nH]c2c1C(=O)NCC2` [compound 743, 3-[(3-chloro-2-methoxyphenyl)amino]-2-[6-[(3R)-oxolan-3-yloxy]-1,5-naphthyridin-4-yl]-1H,5H,6H,7H-pyrrolo[3,2-c]pyridin-4-one], the half-maximal inhibitory concentration (IC50) in test [1] was under 0.1 µM; in test [2] it was under 0.1 µM; in test [3], 0.1 to 1 µM; in test [6], under 0.1 µM; in test [5], under 0.1 µM.
